This passage reports IC50 results from patent EP1931657B1, “NOVEL HIGH AFFINITY QUINOLINE-BASED KINASE LIGANDS” (Merck Sharp & Dohme Corp., priority 2005, dated 2007).

Each structure is given as a SMILES string. Bounds are passed on as bounds.

This assay concerns the target CDK-2 (Homo sapiens, UniProt P24941). As to the kind of experiment: CDK-2 inhibition, fluorescence polarization displacement assay.
Procedure: Binding assays were performed in a 384 well Costar NBS coated plate. […] The concentration of BMS-Alexa Fluor647 was 50 nM. Serial dilutions of compounds were added to 12 wells. The final buffer concentration was 10 mM Hepes, pH 7.5, 150 mM NaCl, and 1 mM DTT. Samples were incubated at room temperature for 15 minutes and then read in an Analyst HT instrument using an excitation and emission wavelength of 580 and 680 nm, respectively.
`COC(=O)[C@H](Cc1ccc(O)cc1)NC(=O)c1cc(C(=O)O)c2cc(-c3ccc(N(C)C)cc3)ccc2n1` [Compound 107] gave an IC50 of 1 to 40 µM.

As to `CC(Cc1ccc(O)cc1)NC(=O)c1cc(C(=O)O)c2cc(-c3cccc(C(F)(F)F)c3)ccc2n1` (centres unmarked) [Compound 110], the IC50 was in the range of 1 to 40 µM.

Regarding `COC(=O)[C@H](Cc1ccc(O)cc1)NC(=O)c1cc(C(=O)O)c2cc(-c3cc(C(F)(F)F)cc(C(F)(F)F)c3)ccc2n1` [Compound 112], the concentration for half-maximal inhibition (IC50) lay within 1 to 40 µM.

For the compound `COC(=O)[C@H](Cc1ccc(O)cc1)NC(=O)c1cc(C(=O)O)c2cc(-c3ccc(OC)c(F)c3)ccc2n1` [Compound 113], the IC50 lay in the range of 1 to 40 µM.

`N#CC[C@H](Cc1ccc(O)cc1)NC(=O)c1cc(C(=O)O)c2cc(CCc3ccccc3)ccc2n1` [Compound 116] showed an IC50 of 1 to 40 µM.

The compound `COC[C@H](Cc1ccc(O)cc1)NC(=O)c1cc(C(=O)O)c2cc(C#Cc3ccccn3)ccc2n1` [Compound 125] came in with a half-maximal inhibitory concentration (IC50) of 1 to 40 µM.

Regarding `COC[C@H](Cc1ccc(O)cc1)NC(=O)c1cc(C(=O)O)c2cc(COc3ccc(C(F)(F)F)cc3)ccc2n1` [Compound 129], the IC50 lay within 1 to 40 µM.

The compound `COC(=O)[C@H](Cc1ccc(O)cc1)NC(=O)c1cc(C(=O)O)c2cc(-c3cccnc3)ccc2n1` [Compound 130] gave a half-maximal inhibitory concentration (IC50) of 1 to 40 µM.

`COC(=O)[C@H](Cc1ccc(O)cc1)NC(=O)c1cc(C(=O)O)c2cc(-c3ccc4ccccc4c3)ccc2n1` [Compound 133] returned an IC50 of 1 to 40 µM.

`COC(=O)[C@H](Cc1ccc(O)cc1)NC(=O)c1cc(C(=O)O)c2cc(-c3ccc(F)cc3)ccc2n1` [Compound 135] gave an IC50 of 1 to 40 µM.

`COC[C@H](Cc1ccc(O)cc1)NC(=O)c1cc(NS(=O)(=O)C(C)(C)C)c2cc(-c3cccc(N4CCOCC4)c3)ccc2n1` [Compound 136] showed a 50% inhibitory concentration (IC50) of 1 to 40 µM.

As for `COC[C@H](Cc1ccc(O)cc1)NC(=O)c1cc(C(=O)O)c2cc(C#Cc3cccnc3)ccc2n1` [Compound 137], the IC50 fell in the range of 1 to 40 µM.

As to `COC[C@H](Cc1ccc(O)cc1)NC(=O)c1cc(NS(=O)(=O)C(C)(C)C)c2cc(-c3cccc(COc4cccnc4)c3)ccc2n1` [Compound 139], the IC50 was 1 to 40 µM.

In turn, `COC[C@H](Cc1ccc(O)cc1)NC(=O)c1cc(C(=O)O)c2cc(-c3cccc(COc4cccnc4)c3)ccc2n1` [Compound 141] displayed an IC50 of 1 to 40 µM.

`COC(=O)[C@H](Cc1ccc(O)cc1)NC(=O)c1cc(C(=O)O)c2cc(-c3ccc(N)cc3)ccc2n1` [Compound 145] registered an IC50 of 1 to 40 µM.

Compound `COC[C@H](Cc1ccc(O)cc1)NC(=O)c1cc(C(=O)O)c2cc(COc3ccc(Cl)c(F)c3)ccc2n1` [Compound 146] showed an IC50 of 1 to 40 µM.

In the case of `COC[C@H](Cc1ccc(O)cc1)NC(=O)c1cc(C(=O)O)c2cc(C#Cc3ccccc3C(F)(F)F)ccc2n1` [Compound 148], the IC50 is 1 to 40 µM.

With `COC(=O)[C@H](Cc1ccc(O)cc1)NC(=O)c1cc(C(=O)O)c2cc(-c3ccccc3OC)ccc2n1` [Compound 151], the IC50 lay within 1 to 40 µM.

`COC[C@H](Cc1ccc(O)cc1)NC(=O)c1cc(C(=O)O)c2cc(C#CCCC#N)ccc2n1` [Compound 152] displayed an IC50 of 1 to 40 µM.

As for `COC(=O)C(Cc1ccc(O)cc1)NC(=O)c1cc(C(=O)NC(C)(C)C(=O)O)c2cc(-c3cccs3)ccc2n1` (centres unmarked) [Compound 154], the IC50 was > 40 µM.

For the compound `COC(=O)[C@H](Cc1c[nH]cn1)NC(=O)c1cc(C(=O)O)c2cc(-c3cccs3)ccc2n1` [Compound 156], the IC50 is > 40 µM.

Regarding `COC(=O)[C@H](Cc1ccc(O)cc1)NC(=O)c1cc(C(=O)O)c2cc(-c3ccc(S(C)(=O)=O)cc3)ccc2n1` [Compound 157], the IC50 was > 40 µM.

As for `COC(=O)[C@H](Cc1ccc(O)cc1)NC(=O)c1cc(C(=O)O)c2cc(-c3cccc(NC(C)=O)c3)ccc2n1` [Compound 158], the IC50 is > 40 µM.

For the compound `COC(=O)[C@H](Cc1ccc(O)cc1)NC(=O)c1cc(C(=O)O)c2cc(Cc3ccccc3)ccc2n1` [Compound 159], the IC50 was > 40 µM.

On to `COC(=O)[C@H](Cc1cccnc1)NC(=O)c1cc(C(=O)O)c2cc(-c3cccc(C(F)(F)F)c3)ccc2n1` [Compound 164], for which the IC50 is > 40 µM.

With `COC(=O)[C@H](Cc1ccc(OC(C)(C)C)cc1)NC(=O)c1cc(C(=O)O)c2cc(-c3cccc(C(F)(F)F)c3)ccc2n1` [Compound 166], the IC50 was > 40 µM.

Consider `COC(=O)[C@H](Cc1ccc(OC)cc1)NC(=O)c1cc(S(C)(=O)=O)c2cc(-c3cccc(C(F)(F)F)c3)ccc2n1` [Compound 171], for which the IC50 was > 40 µM.

As for `COC[C@H](Cc1ccc(O)cc1)NC(=O)c1cc(S(C)(=O)=O)c2cc(-c3cccc(C(F)(F)F)c3)ccc2n1` [Compound 172], the IC50 is > 40 µM.

For `COC[C@H](Cc1ccc(O)cc1)NC(=O)c1cc(C(=O)OCCO)c2cc(-c3cccc(C(F)(F)F)c3)ccc2n1` [Compound 173], the IC50 was > 40 µM.

With `COC[C@H](Cc1ccc(O)cc1)NC(=O)c1cc(C(=O)OCC(O)CO)c2cc(-c3cccc(C(F)(F)F)c3)ccc2n1` (some centres unmarked) [Compound 174], the IC50 is > 40 µM.

For `CCCCOC(=O)c1cc(C(=O)N[C@H](COC)Cc2ccc(O)cc2)nc2ccc(-c3cccc(C(F)(F)F)c3)cc12` [Compound 177], the IC50 is > 40 µM.

Take `COC[C@H](Cc1ccc(O)cc1)NC(=O)c1cc(C(=O)O)c2cc(COc3ccccc3)ccc2n1` [Compound 180]: the IC50 is > 40 µM.

`NC[C@H](Cc1ccc(O)cc1)NC(=O)c1cc(C(=O)O)c2cc(CCc3ccccc3)ccc2n1` [Compound 181]: the IC50 is > 40 µM.

Consider `NCC[C@H](Cc1ccc(O)cc1)NC(=O)c1cc(C(=O)O)c2cc(CCc3ccccc3)ccc2n1` [Compound 182], for which the IC50 was > 40 µM.

On to `CCN(CC)Cc1cccc(-c2ccc3nc(C(=O)N[C@H](COC)Cc4ccc(O)cc4)cc(C(=O)O)c3c2)c1` [Compound 183], for which the IC50 was > 40 µM.

`COC[C@H](Cc1ccc(O)cc1)NC(=O)c1cc(C(=O)O)c2cc(C#CCN(C)C)ccc2n1` [Compound 185]: the IC50 was > 40 µM.

In the case of `COC[C@H](Cc1ccc(O)cc1)NC(=O)c1cc(C(=O)O)c2cc(CCc3cccnc3)ccc2n1` [Compound 187], the IC50 is > 40 µM.

For the compound `COC[C@H](Cc1ccc(O)cc1)NC(=O)c1cc(C(=O)O)c2cc(/C=C/c3cccnc3)ccc2n1` [Compound 188], the IC50 is > 40 µM.

Regarding `COC[C@H](Cc1ccc(O)cc1)NC(=O)c1cc(C(=O)O)c2cc(-c3cccc(CN(C)C)c3)ccc2n1` [Compound 190], the IC50 was > 40 µM.

For the compound `COC[C@H](Cc1ccc(O)cc1)NC(=O)c1cc(C(=O)O)c2cc(-c3cccc(CN(C)CCO)c3)ccc2n1` [Compound 191], the IC50 was > 40 µM.

For `COC[C@H](Cc1ccc(O)cc1)NC(=O)c1cc(C(=O)O)c2cc(-c3cccc(CNC(CO)CO)c3)ccc2n1` [Compound 197], the IC50 is > 40 µM.

For the compound `COC[C@H](Cc1ccc(O)cc1)NC(=O)c1cc(C(=O)O)c2cc(COc3ccc(OC)cc3)ccc2n1` [Compound 200], the IC50 was > 40 µM.

Turning to `COC[C@H](Cc1ccc(O)cc1)NC(=O)c1cc(C(=O)O)c2cc(COc3ccccc3OC)ccc2n1` [Compound 201], the IC50 is > 40 µM.

Consider `COC[C@H](Cc1ccc(O)cc1)NC(=O)c1cc(C(=O)O)c2cc(COc3ccc(O)cc3)ccc2n1` [Compound 202], for which the IC50 is > 40 µM.

Regarding `COC[C@H](Cc1ccc(O)cc1)NC(=O)c1cc(C(=O)O)c2cc(C#CCCCCN)ccc2n1` [Compound 203], the IC50 was > 40 µM.

As for `COC[C@H](Cc1ccc(O)cc1)NC(=O)c1cc(C(=O)O)c2cc(C#Cc3ccncc3)ccc2n1` [Compound 204], the IC50 is > 40 µM.

In the case of `COC[C@H](Cc1ccc(O)cc1)NC(=O)c1cc(C(=O)O)c2cc(C#CCN3CCS(=O)(=O)CC3)ccc2n1` [Compound 205], the IC50 is > 40 µM.

In the case of `CCOC(=O)C#Cc1ccc2nc(C(=O)N[C@H](COC)Cc3ccc(O)cc3)cc(C(=O)O)c2c1` [Compound 206], the IC50 was > 40 µM.

Take `COC[C@H](Cc1ccc(O)cc1)NC(=O)c1cc(C(=O)O)c2cc(COc3ccccn3)ccc2n1` [Compound 207]: the IC50 is > 40 µM.

`COC[C@H](Cc1ccc(O)cc1)NC(=O)c1cc(C(=O)O)c2cc(CSc3ccncc3)ccc2n1` [Compound 208]: the IC50 was > 40 µM.

As for `COC[C@H](Cc1ccc(O)cc1)NC(=O)c1cc(C(=O)O)c2cc(CSc3ccccn3)ccc2n1` [Compound 210], the IC50 is > 40 µM.

With `COC[C@H](Cc1ccc(O)cc1)NC(=O)c1cc(C(=O)O)c2cc(CN(C)C)ccc2n1` [Compound 211], the IC50 was > 40 µM.

Regarding `COC[C@H](Cc1ccc(O)cc1)NC(=O)c1cc(-n2cccn2)c2cc(-c3cccc(Cn4cccn4)c3)ccc2n1` [Compound 213], the IC50 is > 40 µM.

For the compound `COC[C@H](Cc1ccc(O)cc1)NC(=O)c1cc(C(=O)OCCO)c2cc(/C=C/c3ccc(Cl)cc3)ccc2n1` [Compound 214], the IC50 is > 40 µM.

In the case of `COC[C@H](Cc1ccc(O)cc1)NC(=O)c1cc(C(=O)OCC(O)CO)c2cc(/C=C/c3ccc(Cl)cc3)ccc2n1` (some centres unmarked) [Compound 215], the IC50 was > 40 µM.

On to `CCOC(=O)c1cc(C(=O)N[C@H](COC)Cc2ccc(O)cc2)nc2ccc(/C=C/c3ccc(Cl)cc3)cc12` [Compound 217], for which the IC50 is > 40 µM.

On to `COC[C@H](Cc1ccc(O)cc1)NC(=O)c1cc(C(=O)OCCN(C)C)c2cc(/C=C/c3ccc(Cl)cc3)ccc2n1` [Compound 218], for which the concentration for half-maximal inhibition (IC50) is > 40 µM.

For `COC[C@H](Cc1ccc(O)cc1)NC(=O)c1cc(C(=O)O)c2cc(C#CCCCCN3CCN(C)CC3)ccc2n1` [Compound 219], the IC50 is > 40 µM.

As for `COC[C@H](Cc1ccc(O)cc1)NC(=O)c1cc(C(=O)O)c2cc(C#CCCCN3CCN(C)CC3)ccc2n1` [Compound 220], the IC50 was > 40 µM.

As for `CC(C)(C)S(=O)(=O)Nc1cc(C(=O)N[C@H](CN)Cc2ccc(O)cc2)nc2ccc(C#Cc3ccccn3)cc12` [Compound 225], the IC50 is > 40 µM.

`COC(=O)[C@H](Cc1ccc(O)cc1)NC(=O)c1cc(C(=O)O)c2cc(-c3cncnc3)ccc2n1` [Compound 226]: the IC50 is > 40 µM.

Consider `COC(=O)[C@H](Cc1ccc(O)cc1)NC(=O)c1cc(C(N)=O)c2cc(-c3cccs3)ccc2n1` [Compound 227], for which the IC50 was > 40 µM.
